Marks after values point to notes of the source that are not given here.
What was measured:
[1] = system: Mycoplasma pneumoniae M129-B7; experiment: Killing assay, strain M129-B7; settings: 3 days; for Titre (CFU/mL), killing assay: initial 10^6 CFU/mL, triplicate, mean
[2] = system: Mycoplasma pneumoniae FH; experiment: Killing assay, strain FH; settings: for CFU/mL after treatment, killing assay: 3 d at 37°C, triplicate, mean
[3] = system: Mycoplasma pneumoniae FH; experiment: Biofilm assay (crystal violet, absorbance at 550 nm), strain FH; settings: initial 10^5 CFU/mL, 0% CO2, 6-8 days at 37°C, crystal violet, absorbance 550 nm
[4] = system: Mycoplasma pneumoniae Mac; experiment: Colorimetric and biofilm assays, strain Mac; settings: colorimetric and biofilm assays
[5] = system: Mycoplasma pneumoniae M52; experiment: Colorimetric and biofilm assays, strain M52; settings: colorimetric and biofilm assays
[6] = system: Mycoplasma pneumoniae FH; experiment: Colorimetric assay (absorbance at 560 nm), strain FH; settings: initial 10^5 CFU/mL, 0% CO2, 6-8 days at 37°C, absorbance 560 nm
[7] = system: Mycoplasma pneumoniae Mac; experiment: Killing assay, strain Mac; settings: 3 days; for Titre (CFU/mL), killing assay: initial 10^6 CFU/mL, triplicate, mean
[8] = system: Mycoplasma pneumoniae Bru; experiment: Colorimetric and biofilm assays, strain Bru; settings: colorimetric and biofilm assays
[9] = system: Mycoplasma pneumoniae M129-B7; experiment: Colorimetric and biofilm assays, strain M129-B7; assay type: cell-based; settings: strain M129-B7; colorimetric and biofilm assays
[10] = system: Mycoplasma pneumoniae Bru; experiment: Killing assay, strain Bru; settings: 3 days; for Titre (CFU/mL), killing assay: initial 10^6 CFU/mL, triplicate, mean
[11] = system: Mycoplasma pneumoniae M52; experiment: Killing assay, strain M52; settings: 3 days; for Titre (CFU/mL), killing assay: initial 10^6 CFU/mL, triplicate, mean

SMILES: C[C@@H]1CN(c2c(F)c(N)c3c(=O)c(C(=O)O)cn(C4CC4)c3c2F)C[C@H](C)N1 [Sparfloxacin]
- Concentration with statistically significant result, killing assay ([1]; p < 0.005): 0.0625 µg/mL
- Titre (CFU/mL), killing assay ([1]; sparfloxacin 0.0156 μg/mL): 3.57×10^6 CFU/mL
- Titre (CFU/mL), killing assay ([1]; sparfloxacin 0.0313 μg/mL): 2.26×10^6 CFU/mL
- Titre (CFU/mL), killing assay ([1]; sparfloxacin 0.0625 μg/mL): 8.73×10^5 ^a CFU/mL
- Titre (CFU/mL), killing assay ([1]; sparfloxacin 0.125 μg/mL): 1.31×10^5 ^a CFU/mL
- Titre (CFU/mL), killing assay ([1]; sparfloxacin 0.25 μg/mL): 1.12×10^4 ^a CFU/mL
- Change in CFU, killing assay with 1 h incubation ([2]; 1 h treatment, SPFX 0.0625-0.25 μg/mL, AMPs 30 μmol/L, S3 Fig): no change in the CFU values
- Concentration with significant difference in CFU, killing assay ([2]; initial 10^6 CFU/mL, 3 d incubation, p < 0.005): above 0.0625 μg/mL
- CFU/mL after treatment, killing assay ([2]; sparfloxacin 0.0156 μg/mL, initial 10^6 CFU/mL): 6.57×10^6 CFU/mL
- CFU/mL after treatment, killing assay ([2]; sparfloxacin 0.0313 μg/mL, initial 10^6 CFU/mL): 2.33×10^6 CFU/mL
- CFU/mL after treatment, killing assay ([2]; sparfloxacin 0.0625 μg/mL, initial 10^6 CFU/mL): 1.39×10^5 ^a CFU/mL
- CFU/mL after treatment, killing assay ([2]; sparfloxacin 0.125 μg/mL, initial 10^6 CFU/mL): 1.30×10^4 ^a CFU/mL
- CFU/mL after treatment, killing assay ([2]; sparfloxacin 0.25 μg/mL, initial 10^6 CFU/mL): 5.50×10^3 ^a CFU/mL
- Concentration giving complete repression of the growth, biofilm assay [3]: > 0.25 µg/mL
- Concentration that completely attenuated the growth [4]: 0.25 µg/mL
- Concentration that completely attenuated the growth [5]: 0.25 µg/mL
- Concentration giving complete repression of the growth, colorimetric assay [6]: higher than 0.0625 μg/mL
- Concentration with statistically significant result, killing assay ([7]; p < 0.005): 0.0625 µg/mL
- Titre (CFU/mL), killing assay ([7]; sparfloxacin 0.0156 μg/mL): 2.66×10^6 CFU/mL
- Titre (CFU/mL), killing assay ([7]; sparfloxacin 0.0313 μg/mL): 1.86×10^6 CFU/mL
- Titre (CFU/mL), killing assay ([7]; sparfloxacin 0.0625 μg/mL): 3.88×10^5 ^a CFU/mL
- Titre (CFU/mL), killing assay ([7]; sparfloxacin 0.125 μg/mL): 2.17×10^4 ^a CFU/mL
- Titre (CFU/mL), killing assay ([7]; sparfloxacin 0.25 μg/mL): 2.90×10^3 ^a CFU/mL
- Concentration that completely attenuated the growth [8]: 0.25 µg/mL
- Concentration that completely attenuated the growth [9]: 0.25 µg/mL
- Concentration with statistically significant result, killing assay ([10]; p < 0.005): 0.0625 µg/mL
- Titre (CFU/mL), killing assay ([10]; sparfloxacin 0.0156 μg/mL): 2.52×10^6 CFU/mL
- Titre (CFU/mL), killing assay ([10]; sparfloxacin 0.0313 μg/mL): 1.80×10^6 CFU/mL
- Titre (CFU/mL), killing assay ([10]; sparfloxacin 0.0625 μg/mL): 8.41×10^5 ^a CFU/mL
- Titre (CFU/mL), killing assay ([10]; sparfloxacin 0.125 μg/mL): 1.52×10^5 ^a CFU/mL
- Titre (CFU/mL), killing assay ([10]; sparfloxacin 0.25 μg/mL): 1.81×10^4 ^a CFU/mL
- Concentration with statistically significant result, killing assay ([11]; p < 0.005): 0.0625 µg/mL
- Titre (CFU/mL), killing assay ([11]; sparfloxacin 0.0156 μg/mL): 2.95×10^6 CFU/mL
- Titre (CFU/mL), killing assay ([11]; sparfloxacin 0.0313 μg/mL): 2.02×10^6 CFU/mL
- Titre (CFU/mL), killing assay ([11]; sparfloxacin 0.0625 μg/mL): 8.00×10^5 ^a CFU/mL
- Titre (CFU/mL), killing assay ([11]; sparfloxacin 0.125 μg/mL): 1.99×10^5 ^a CFU/mL
- Titre (CFU/mL), killing assay ([11]; sparfloxacin 0.25 μg/mL): 3.24×10^4 ^a CFU/mL
